In ChEMBL document CHEMBL1201862, “PubChem BioAssay data set” (2004):
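Interpolation was linear, between the two tested concentrations surrounding the appropriate level; five concentrations were tested over 48 hours in 96-well plates. GI50 = concentration required for 50% inhibition of growth.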 The source made the active and inactive calls. No stated cut-off is given here; in the data, active = GI50 up to about 1.1 µM and inactive = higher.

Key:
Assay in all cases: NCI anticancer screen, dose series, 48 h
SF-268 = test system: SF-268
SF-539 = test system: SF-539
UACC-257 = test system: UACC-257
Malme-3M = test system: Malme-3M
LOX IMVI = test system: LOX IMVI
HCC 2998 = test system: HCC 2998
NCI-H23 = test system: NCI-H23
OVCAR-5 = test system: OVCAR-5
U-251 = test system: U-251
SK-MEL-2 = test system: SK-MEL-2
SN12C = test system: SN12C
SK-OV-3 = test system: SK-OV-3
A549 = test system: A549
CAKI-1 = test system: CAKI-1
COLO 205 = test system: COLO 205
NCI-H460 = test system: NCI-H460
HCT-15 = test system: HCT-15

SMILES	GI50 (SF-268)	GI50 (SF-539)	GI50 (UACC-257)	GI50 (Malme-3M)	GI50 (LOX IMVI)	GI50 (HCC 2998)	GI50 (NCI-H23)	GI50 (OVCAR-5)	GI50 (U-251)	GI50 (SK-MEL-2)	GI50 (SN12C)	GI50 (SK-OV-3)	GI50 (A549)	GI50 (CAKI-1)	GI50 (COLO 205)	GI50 (NCI-H460)	GI50 (HCT-15) [µM]
COc1cc2cc3c4c(cc(OC)c(OC)c4c2cc1OC)CCN3C(=O)CCC(=O)O	> 100 µM (inactive)	> 100 µM (inactive)	> 100 µM (inactive)	> 100 µM (inactive)	> 100 µM (inactive)	> 100 µM (inactive)	> 100 µM (inactive)	> 100 µM (inactive)	> 100 µM (inactive)	> 100 µM (inactive)	> 100 µM (inactive)	> 100 µM (inactive)	> 100 µM (inactive)	> 100 µM (inactive)	> 100 µM (inactive)	–	–
CC(=O)O[C@H]1CC[C@@]2(C)C(=CC[C@@H]3C2CC[C@]2(C)Nc4c(cnn4-c4ccccc4)CC32)C1 (stereo partly specified)	–	2.51 µM (inactive)	12.4 µM (inactive)	29.9 µM (inactive)	–	16 µM (inactive)	28.2 µM (inactive)	19.2 µM (inactive)	4.98 µM (inactive)	54.6 µM (inactive)	–	27.8 µM (inactive)	23.7 µM (inactive)	15.3 µM (inactive)	–	4.97 µM (inactive)	10.4
C=CCOC1CC(n2cnc3c(N)ncnc32)OC1CO (stereo unspecified)	> 100 µM (inactive)	> 100 µM (inactive)	> 100 µM (inactive)	> 100 µM (inactive)	–	> 100 µM (inactive)	> 100 µM (inactive)	> 100 µM (inactive)	> 100 µM (inactive)	> 100 µM (inactive)	–	–	> 100 µM (inactive)	> 100 µM (inactive)	> 100 µM (inactive)	> 100 µM (inactive)	> 100
COC(=O)CC(C(C(=O)OCc1ccccc1)C(C)O)N1C(=O)OC(c2ccccc2)C1c1ccccc1 (stereo unspecified)	> 100 µM (inactive)	> 100 µM (inactive)	> 100 µM (inactive)	> 100 µM (inactive)	> 100 µM (inactive)	> 100 µM (inactive)	> 100 µM (inactive)	–	> 100 µM (inactive)	> 100 µM (inactive)	> 100 µM (inactive)	–	95.5 µM (inactive)	–	> 100 µM (inactive)	> 100 µM (inactive)	> 100
Cc1cc(Cl)ccc1NC(=O)C1C(=O)C(=O)N(c2ccc(Cl)cc2C)C1=O (stereo unspecified)	53 µM (inactive)	> 100 µM (inactive)	> 100 µM (inactive)	> 100 µM (inactive)	> 100 µM (inactive)	> 100 µM (inactive)	74.5 µM (inactive)	48.3 µM (inactive)	57.3 µM (inactive)	89.9 µM (inactive)	> 100 µM (inactive)	> 100 µM (inactive)	> 100 µM (inactive)	> 100 µM (inactive)	> 100 µM (inactive)	–	57.5
O=C1NC2C=CN(Cc3ccccc3)C=C2C(=O)N2CCCC12 (stereo unspecified)	> 100 µM (inactive)	> 100 µM (inactive)	> 100 µM (inactive)	> 100 µM (inactive)	–	> 100 µM (inactive)	> 100 µM (inactive)	> 100 µM (inactive)	> 100 µM (inactive)	> 100 µM (inactive)	> 100 µM (inactive)	> 100 µM (inactive)	> 100 µM (inactive)	> 100 µM (inactive)	> 100 µM (inactive)	> 100 µM (inactive)	> 100
NC(CO)c1ccc(OCc2ccccc2)cc1 (stereo unspecified)	> 100 µM (inactive)	> 100 µM (inactive)	> 100 µM (inactive)	> 100 µM (inactive)	47.3 µM (inactive)	> 100 µM (inactive)	> 100 µM (inactive)	> 100 µM (inactive)	> 100 µM (inactive)	> 100 µM (inactive)	> 91.8 µM (inactive)	> 100 µM (inactive)	> 100 µM (inactive)	> 53.7 µM (inactive)	> 100 µM (inactive)	> 100 µM (inactive)	> 91.8
O=C(/C=C\c1cccc2ccccc12)c1cccs1	11 µM (inactive)	16.9 µM (inactive)	13.2 µM (inactive)	12.5 µM (inactive)	–	15.5 µM (inactive)	16.7 µM (inactive)	18.7 µM (inactive)	4.43 µM (inactive)	–	16.8 µM (inactive)	15.5 µM (inactive)	16.8 µM (inactive)	6.31 µM (inactive)	15.7 µM (inactive)	14 µM (inactive)	3.18
CCCCCCCC(=O)OCC(COC(=O)C(C)(C)C)OC(=O)Cc1ccccc1 (stereo unspecified)	> 100 µM (inactive)	–	–	> 100 µM (inactive)	> 100 µM (inactive)	> 100 µM (inactive)	> 100 µM (inactive)	> 100 µM (inactive)	> 100 µM (inactive)	–	> 100 µM (inactive)	> 100 µM (inactive)	> 100 µM (inactive)	> 100 µM (inactive)	> 100 µM (inactive)	> 100 µM (inactive)	> 100
N#C/C(=N\c1ccccc1N(C(=O)c1ccccc1)C(=O)c1ccccc1)c1ccccc1	> 100 µM (inactive)	> 100 µM (inactive)	> 100 µM (inactive)	> 100 µM (inactive)	27.2 µM (inactive)	> 68.4 µM (inactive)	> 62.5 µM (inactive)	> 47.4 µM (inactive)	10.3 µM (inactive)	42.1 µM (inactive)	> 71.8 µM (inactive)	> 100 µM (inactive)	9.04 µM (inactive)	47.6 µM (inactive)	> 42 µM (inactive)	32.8 µM (inactive)	5.14
COc1cc2c3c(c1OC)-c1ccccc1C(C(O)c1ccccc1)C3N(C)CC2 (stereo unspecified)	31.7 µM (inactive)	21.4 µM (inactive)	20.5 µM (inactive)	19.6 µM (inactive)	32.1 µM (inactive)	17.7 µM (inactive)	85.5 µM (inactive)	> 100 µM (inactive)	30 µM (inactive)	28.1 µM (inactive)	32.6 µM (inactive)	37.3 µM (inactive)	39.5 µM (inactive)	–	15.8 µM (inactive)	27.3 µM (inactive)	25.4
COc1cc(C2C(C(=O)O)=C(COC(C)=O)Oc3cc4c(cc32)OCO4)cc(OC)c1OC(C)=O (stereo unspecified)	–	–	> 100 µM (inactive)	> 100 µM (inactive)	> 100 µM (inactive)	–	> 100 µM (inactive)	–	> 100 µM (inactive)	> 100 µM (inactive)	> 100 µM (inactive)	> 100 µM (inactive)	> 100 µM (inactive)	> 100 µM (inactive)	> 100 µM (inactive)	> 100 µM (inactive)	> 100
COc1ccc2c(c1)[n+]([O-])c(C(=O)C/C(=N\NC(=O)C[N+](C)(C)C)C(=O)Nc1cc(Cl)ccc1Cl)c(C)[n+]2[O-]	> 100 µM (inactive)	> 100 µM (inactive)	> 100 µM (inactive)	> 100 µM (inactive)	> 100 µM (inactive)	> 100 µM (inactive)	> 100 µM (inactive)	> 100 µM (inactive)	> 100 µM (inactive)	> 100 µM (inactive)	> 100 µM (inactive)	–	> 100 µM (inactive)	> 100 µM (inactive)	> 100 µM (inactive)	> 100 µM (inactive)	> 100
Cc1ccc(NC(=O)/C(C#N)=C/c2ccccc2)c(C)c1	> 100 µM (inactive)	> 100 µM (inactive)	> 100 µM (inactive)	> 100 µM (inactive)	–	> 100 µM (inactive)	> 100 µM (inactive)	> 100 µM (inactive)	> 100 µM (inactive)	> 100 µM (inactive)	> 100 µM (inactive)	> 100 µM (inactive)	> 100 µM (inactive)	> 100 µM (inactive)	> 100 µM (inactive)	> 100 µM (inactive)	> 100
CC(=O)O/N=C/c1cc2c(cc1Br)OCO2	> 349 µM (inactive)	–	> 349 µM (inactive)	> 349 µM (inactive)	> 349 µM (inactive)	> 349 µM (inactive)	> 349 µM (inactive)	> 349 µM (inactive)	> 34.9 µM (inactive)	> 349 µM (inactive)	> 349 µM (inactive)	> 349 µM (inactive)	> 349 µM (inactive)	> 349 µM (inactive)	> 349 µM (inactive)	> 349 µM (inactive)	> 349
CCOc1ccc2c(c1)[n+]([O-])c(-c1ccccc1Cl)c(N)[n+]2[O-]	> 100 µM (inactive)	> 100 µM (inactive)	> 100 µM (inactive)	> 100 µM (inactive)	–	–	> 100 µM (inactive)	> 100 µM (inactive)	> 100 µM (inactive)	> 100 µM (inactive)	> 100 µM (inactive)	> 100 µM (inactive)	> 100 µM (inactive)	> 100 µM (inactive)	> 100 µM (inactive)	> 100 µM (inactive)	–
O=C(O)CCSCCCN1C(=O)c2ccccc2C1=O	> 100 µM (inactive)	> 100 µM (inactive)	> 100 µM (inactive)	> 100 µM (inactive)	–	> 100 µM (inactive)	> 100 µM (inactive)	> 100 µM (inactive)	> 100 µM (inactive)	> 100 µM (inactive)	> 100 µM (inactive)	> 100 µM (inactive)	> 100 µM (inactive)	–	> 100 µM (inactive)	–	> 100
COc1cc(C)c(C(=O)/C=C/c2cc(OC)c(O)c(OC)c2)cc1O	23.9 µM (inactive)	29.6 µM (inactive)	31.1 µM (inactive)	20.1 µM (inactive)	19.5 µM (inactive)	16.4 µM (inactive)	12.2 µM (inactive)	27.6 µM (inactive)	19.6 µM (inactive)	18.9 µM (inactive)	–	32.1 µM (inactive)	29.3 µM (inactive)	26.4 µM (inactive)	32.7 µM (inactive)	25.1 µM (inactive)	–
